According to patent US12384808B2, “Modulators of TNF-α activity” (Forward Therapeutics, Inc., priority 2022, dated 2025):

Biological target: TNFα (Homo sapiens, UniProt P01375)
Experiment: TNFα Induced HEK Blue Cellular Assay
Type: cell-based
Details: HEK Blue TNFα reporter cells, TNFα 100 pg/ml, 24 hrs at 37° C., secreted alkaline phosphatase (QUANTI-Blue) read at 620 nm; read-out: IC50 value
In short: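 IC50 fitted with a 4-parameter logistic model from % inhibition, normalised to DMSO controls with and without stimulation. Readout: QUANTI-Blue SEAP at 620 nm after 24 h, 37 °C exposure to TNFα (100 pg/ml final) and test compound at […]–0.5 nM final.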

Sequence of TNFα (P01375 77-233 limits assumed): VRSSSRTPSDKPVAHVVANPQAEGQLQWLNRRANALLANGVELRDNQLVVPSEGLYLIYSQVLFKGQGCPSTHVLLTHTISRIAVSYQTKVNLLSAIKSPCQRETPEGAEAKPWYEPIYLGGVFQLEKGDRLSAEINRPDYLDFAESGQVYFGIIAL

Compound | IC50 [nM]
CN1C(=O)c2cccc(OC(F)F)c2[C@H]2C[C@@H]1c1nc3ccc(-c4ccc(OCCCP(C)(C)=O)nc4)cc3n12 [Example 40, (1R,11R)-18-(difluoromethoxy)-5-{6-[3-(dimethylphosphoryl)propoxy]pyridin-3-yl}-12-methyl-2,9,12-triazapentacyclo[9.8.1.0^{2,10}.0^{3,8}.0^{14,19}]icosa-3(8),4,6,9,14(19),15,17-heptaen-13-one] | 100 to 1000
CP(C)(=O)c1ccc(-c2ccc3nc4n(c3c2)[C@@H]2C[C@H]4NC(=O)c3cccc(OC(F)F)c32)c(Cl)c1 [Example 41, (1R,11R)-5-[2-chloro-4-(dimethylphosphoryl)phenyl]-18-(difluoromethoxy)-2,9,12-triazapentacyclo[9.8.1.0^{2,10}.0^{3,8}.0^{14,19}]icosa-3(8),4,6,9,14(19),15,17-heptaen-13-one] | < 100
CP(C)(=O)COc1ncc(-c2ccc3nc4n(c3c2)[C@@H]2C[C@H]4NC(=O)c3cccc(OC(F)F)c32)s1 [Example 42, (1R,11R)-18-(difluoromethoxy)-5-{2-[(dimethylphosphoryl)methoxy]-1,3-thiazol-5-yl}-2,9,12-triazapentacyclo[9.8.1.0^{2,10}.0^{3,8}.0^{14,19}]icosa-3(8),4,6,9,14(19),15,17-heptaen-13-one] | < 100
CP(C)(=O)c1ccc(-c2ccc3nc4n(c3c2)[C@@H]2C[C@H]4NC(=O)c3cccc(OC(F)F)c32)cc1F [Example 43, (1R,11R)-18-(difluoromethoxy)-5-[4-(dimethylphosphoryl)-3-fluorophenyl]-2,9,12-triazapentacyclo[9.8.1.0^{2,10}.0^{3,8}.0^{14,19}]icosa-3(8),4,6,9,14(19),15,17-heptaen-13-one] | < 100
CCN1C(=O)c2cccc(OC(F)F)c2[C@H]2C[C@@H]1c1nc3ccc(-c4ccc(OCP(C)(C)=O)cc4)cc3n12 [Example 44, (1R,11R)-18-(difluoromethoxy)-5-{4-[(dimethylphosphoryl)methoxy]phenyl}-12-ethyl-2,9,12-triazapentacyclo[9.8.1.0^{2,10}.0^{3,8}.0^{14,19}]icosa-3(8),4,6,9,14(19),15,17-heptaen-13-one] | < 100
CCN1C(=O)c2cccc(OC(F)F)c2[C@H]2C[C@@H]1c1nc3ccc(-c4ccc(P(C)(C)=O)c(F)c4)cc3n12 [Example 45, (1R,11R)-18-(difluoromethoxy)-5-[4-(dimethylphosphoryl)-3-fluorophenyl]-12-ethyl-2,9,12-triazapentacyclo[9.8.1.0^{2,10}.0^{3,8}.0^{14,19}]icosa-3(8),4,6,9,14(19),15,17-heptaen-13-one] | < 100
CCN1C(=O)c2cccc(OC(F)F)c2[C@H]2C[C@@H]1c1nc3ccc(-c4cc(F)c(P(C)(C)=O)c(F)c4)cc3n12 [Example 46, (1R,11R)-18-(difluoromethoxy)-5-[4-(dimethylphosphoryl)-3,5-difluorophenyl]-12-ethyl-2,9,12-triazapentacyclo[9.8.1.0^{2,10}.0^{3,8}.0^{14,19}]icosa-3(8),4,6,9,14(19),15,17-heptaen-13-one] | < 100
CP(C)(=O)c1ccc(-c2ccc3nc4n(c3c2)[C@@H]2C[C@H]4N(C3CC3)C(=O)c3cccc(OC(F)F)c32)cn1 [Example 47, (1R,11R)-12-cyclopropyl-18-(difluoromethoxy)-5-[6-(dimethylphosphoryl)pyridin-3-yl]-2,9,12-triazapentacyclo[9.8.1.0^{2,10}.0^{3,8}.0^{14,19}]icosa-3(8),4,6,9,14(19),15,17-heptaen-13-one] | < 100
CP(C)(=O)c1ccc(-c2ccc3nc4n(c3c2)[C@@H]2C[C@H]4N(C3CC3)C(=O)c3cccc(OC(F)F)c32)cc1F [Example 48, (1R,11R)-12-cyclopropyl-18-(difluoromethoxy)-5-[4-(dimethylphosphoryl)-3-fluorophenyl]-2,9,12-triazapentacyclo[9.8.1.0^{2,10}.0^{3,8}.0^{14,19}]icosa-3(8),4,6,9,14(19),15,17-heptaen-13-one] | < 100
CCN1C(=O)c2cccc(OC(F)F)c2[C@H]2C[C@@H]1c1nc3ccc(-c4ccc(P(C)(C)=O)cc4)cc3n12 [Example 49, (1R,11R)-18-(difluoromethoxy)-5-[4-(dimethylphosphoryl)phenyl]-12-ethyl-2,9,12-triazapentacyclo[9.8.1.0^{2,10}.0^{3,8}.0^{14,19}]icosa-3(8),4,6,9,14(19),15,17-heptaen-13-one] | < 100
CN1C(=O)c2cccc(OC(F)F)c2[C@H]2C[C@@H]1c1nc3ccc(-c4ccc(NP(C)(C)=O)cc4)cc3n12 [Example 50, (1R,11R)-18-(difluoromethoxy)-5-{4-[(dimethylphosphoryl)amino]phenyl}-12-methyl-2,9,12-triazapentacyclo[9.8.1.0^{2,10}.0^{3,8}.0^{14,19}]icosa-3(8),4,6,9,14(19),15,17-heptaen-13-one] | < 100
CCP(=O)(CC)c1ccc(-c2ccc3nc4n(c3c2)[C@@H]2C[C@H]4NC(=O)c3cccc(OC(F)F)c32)cc1F [Example 51, (1R,11R)-5-[4-(diethylphosphoryl)-3-fluorophenyl]-18-(difluoromethoxy)-2,9,12-triazapentacyclo[9.8.1.0^{2,10}.0^{3,8}.0^{14,19}]icosa-3(8),4,6,9,14(19),15,17-heptaen-13-one] | < 100
CN1C(=O)c2cccc(OC(F)F)c2[C@H]2C[C@@H]1c1nc3cc(F)c(-c4ccc(P(C)(C)=O)c(F)c4)cc3n12 [Example 57, (1R,11R)-18-(difluoromethoxy)-5-[4-(dimethylphosphoryl)-3-fluorophenyl]-6-fluoro-12-methyl-2,9,12-triazapentacyclo[9.8.1.0^{2,10}.0^{3,8}.0^{14,19}]icosa-3(8),4,6,9,14(19),15,17-heptaen-13-one] | < 100
CN1C(=O)c2cccc(OC(F)F)c2[C@H]2C[C@@H]1c1nc3cc(F)c(-c4ccc(P(C)(C)=O)cc4F)cc3n12 [Example 58, (1R,11R)-18-(difluoromethoxy)-5-[4-(dimethylphosphoryl)-2-fluorophenyl]-6-fluoro-12-methyl-2,9,12-triazapentacyclo[9.8.1.0^{2,10}.0^{3,8}.0^{14,19}]icosa-3(8),4,6,9,14(19),15,17-heptaen-13-one] | < 100
[2H]C([2H])([2H])N1C(=O)c2cccc(OC(F)F)c2[C@H]2C[C@@H]1c1nc3cc(F)c(-c4ccc(P(C)(C)=O)cc4F)cc3n12 [Example 61, (7R,14R)-1-(difluoromethoxy)-11-(4-(dimethylphosphoryl)-2-fluorophenyl)-10-fluoro-6-(methyl-d3)-6,7-dihydro-7,14-methanobenzo[f]benzo[4,5]imidazo[1,2-a][1,4]diazocin-5(14H)-one] | < 100

Second part, the molecule after the results:

IC50 [nM] | Compound
< 100 | [2H]C([2H])([2H])N1C(=O)c2cccc(OC(F)F)c2[C@H]2C[C@@H]1c1nc3ccc(-c4ccc(P(C)(C)=O)c(F)c4F)cc3n12 [Example 52, (7R,14R)-1-(difluoromethoxy)-11-(4-(dimethylphosphoryl)-2,3-difluorophenyl)-6-(methyl-d3)-6,7-dihydro-7,14-methanobenzo[f]benzo[4,5]imidazo[1,2-a][1,4]diazocin-5(14H)-one]
< 100 | [2H]C([2H])([2H])N1C(=O)c2cccc(OC(F)F)c2[C@H]2C[C@@H]1c1nc3ccc(-c4ccc(P(C)(C)=O)cc4F)cc3n12 [Example 53, (7R,14R)-1-(difluoromethoxy)-11-(4-(dimethylphosphoryl)-2-fluorophenyl)-6-(methyl-d3)-6,7-dihydro-7,14-methanobenzo[f]benzo[4,5]imidazo[1,2-a][1,4]diazocin-5(14H)-one]
< 100 | [2H]C([2H])([2H])N1C(=O)c2cccc(OC(F)F)c2[C@H]2C[C@@H]1c1nc3ccc(-c4cc(F)c(P(C)(C)=O)cc4F)cc3n12 [Example 54, (7R,14R)-1-(difluoromethoxy)-11-(4-(dimethylphosphoryl)-2,5-difluorophenyl)-6-(methyl-d3)-6,7-dihydro-7,14-methanobenzo[f]benzo[4,5]imidazo[1,2-a][1,4]diazocin-5(14H)-one]
< 100 | CN1C(=O)c2cccc(OC(F)F)c2[C@H]2C[C@@H]1c1nc3cc(F)c(-c4ccc(P(C)(C)=O)c(F)c4F)cc3n12 [Example 55, (1R,11R)-18-(difluoromethoxy)-5-[4-(dimethylphosphoryl)-2,3-difluorophenyl]-6-fluoro-12-methyl-2,9,12-triazapentacyclo[9.8.1.0^{2,10}.0^{3,8}.0^{14,19}]icosa-3(8),4,6,9,14(19),15,17-heptaen-13-one]
< 100 | CN1C(=O)c2cccc(OC(F)F)c2[C@H]2C[C@@H]1c1nc3ccc(-c4cc(F)c(P(C)(C)=O)cc4F)cc3n12 [Example 56, (1R,11R)-18-(difluoromethoxy)-5-[4-(dimethylphosphoryl)-2,5-difluorophenyl]-12-methyl-2,9,12-triazapentacyclo[9.8.1.0^{2,10}.0^{3,8}.0^{14,19}]icosa-3(8),4,6,9,14(19),15,17-heptaen-13-one]
< 100 | [2H]C([2H])([2H])N1C(=O)c2cccc(OC(F)F)c2[C@H]2C[C@@H]1c1nc3cc(F)c(-c4ccc(P(C)(C)=O)c(F)c4)cc3n12 [Example 59, (7R,14R)-1-(difluoromethoxy)-11-(4-(dimethylphosphoryl)-3-fluorophenyl)-10-fluoro-6-(methyl-d3)-6,7-dihydro-7,14-methanobenzo[f]benzo[4,5]imidazo[1,2-a][1,4]diazocin-5(14H)-one]
< 100 | [2H]C([2H])([2H])N1C(=O)c2cccc(OC(F)F)c2[C@H]2C[C@@H]1c1nc3ccc(-c4cc(F)c(P(C)(C)=O)c(F)c4)cc3n12 [Example 60, (7R,14R)-1-(difluoromethoxy)-11-(4-(dimethylphosphoryl)-3,5-difluorophenyl)-6-(methyl-d3)-6,7-dihydro-7,14-methanobenzo[f]benzo[4,5]imidazo[1,2-a][1,4]diazocin-5(14H)-one]
